# Where two headings read alike, the source gives them in different places.
# How the values were obtained:
# [1] = in vivo; cited from earlier work
# [2] = Urinary metabolic profile of DTG (pooled urine); type: in vivo, human; settings: pooled urine 0-24 h, n=12, mean (standard deviation)
# Experimental: (§1) There was no washout between treatment periods. All doses were administered in the fasting state.
# (§2) Urine samples were collected at intervals of 0 to 12 hours and 12 to 24 hours after each treatment period. Individual urine pools were produced for each subject in a given treatment group by combining proportional volumes (% of total volume) from the 0- to 12-hours and 12- to 24-hours collections. Individual pooled human plasma samples were prepared for each subject and treatment group.
# (§3) Each pooled plasma sample was mixed with aqueous EDTA disodium salt solution (10 mg/mL) and subsequently extracted 3 times with methanol and acetonitrile. Pooled urine samples were lyophilised and the residue was reconstituted in water:methanol (90:10 v/v). Drug-related components in plasma extracts and urine samples were separated on a 100 × 4.6 mm 3.5-micron Symmetry C18 column (Waters Associates) at 40°C by a step-gradient elution method with a mobile phase composition of water:acetonitrile containing 0.1% ammonium acetate starting at 95:5 (v/v) and ending at 5:95 (v/v) over 50 minutes. The eluate was analysed by multistage mass spectrometry (MSn) using an LTQ Orbitrap™ Hybrid Mass Spectrometer with Xcalibur 2.07 software (Thermo Fisher Scientific, Bremen, Germany). Data-dependent scanning using an accurate mass list, consisting of all previously characterised metabolites, was used in addition to analysis of pre-dose samples to aid in the distinction of drug-related material from endogenous components.
# [3] = with TPV/r; cited from earlier work
# [4] = parameters: method as in PMID 18769354; settings: EVG 200 mg once daily with TPV/r 500/200 mg twice daily, healthy subjects; cited from earlier work
# [5] = EFV product label, cited from earlier work
# [6] = EFV plasma pharmacokinetics when co-administered with DTG, by CYP2B6 genotype; settings: for AUC / Cmax / concentration at 24 h / Tmax / half-life: human; for AUC: AUC(0–τ); for Cmax: C max; for concentration at 24 h: C τ; for Tmax: T max; for half-life: t½
# Experimental: This was a phase I, open-label, single-sequence, two-period, steady-state study. Subjects received DTG at a dose of 50 mg (two 25 mg tablets) every 24 hours (q24h) for 5 days (period 1), and then the combination of morning DTG 50 mg and evening EFV 600 mg q24h was given for 14 days (period 2). There was no washout between treatment periods. All doses were administered in the fasting state. Serial PK plasma samples were collected after each period for DTG, and samples after period 2 were also collected for EFV. The metabolic profile of DTG was evaluated in plasma and urine using pooled samples for each subject to assist in establishing the mechanism of any potential drug interaction (see Supplementary Material).
# Dolutegravir and EFV were measured in plasma samples using validated methods, which consisted of extraction from plasma by protein precipitation with acetonitrile containing [^15N^2H7]dolutegravir or [^2H4]-efavirenz as the internal standards, respectively. The plasma extracts were injected onto a 2.1 × 50 mm 3.5-micron XBridge™ C18 column (Waters Associates, Milford, MA, USA). Dolutegravir was eluted with a mobile phase consisting of 40 % acetonitrile in aqueous 0.1 % formic acid, and EFV was eluted with a mobile phase consisting of acetonitrile/0.1 % formic acid (65 % v/v) in a 5-mM ammonium acetate buffer containing 0.1 % acetic acid (35 % v/v). The eluates were detected by using a Sciex API 4000™ (AB Sciex, Framingham, MA, USA) equipped with a TurboIonSpray® ionisation source with multiple reaction monitoring (DTG positive ion mode m/z 420 > 277; internal standard m/z 428 > 277; EFV negative ion mode m/z 314 > 243; internal standard m/z 318 > 247). Data acquisition and processing were performed with Analyst 1.4.2 software (AB Sciex), and linear regression analysis calculations were performed using the Study Management System, SMS™ 2000 v.2.2 (GlaxoSmithKline, Research Triangle Park, NC, USA). The calibration range for DTG was 0.020 to 20 μg/mL and for EFV was 0.10 to 20 μg/mL. Quality control samples prepared separately at three concentrations were stored with study samples and analysed with each batch of samples against separately prepared calibration standards.
# A non-compartmental PK analysis of the concentration-time data was performed with WinNonlin (version 5.2, Pharsight Corporation, Mountain View, CA, USA). Plasma PK parameters for both DTG and EFV were calculated using actual recorded times for each treatment. Parameters that were determined included AUC from time zero to the end of the dosage interval (AUC(0–τ)), maximum observed plasma concentration (C max), the time of maximum observed plasma concentration (T max) and plasma concentration at the end of the dosing interval (C τ).
# A blood sample was taken from 9 of 12 subjects in the EFV study who gave consent for pharmacogenetic analysis, and genomic DNA was extracted. Twenty-three polymorphisms from five genes/gene regions previously implicated in EFV metabolism were genotyped (Table 1). Only polymorphisms possibly conferring reduced enzyme activity were investigated. Due to the small number of samples available, no statistical modelling was planned or performed. However, the probabilities for each possible experimental outcome, based on the distribution of polymorphism carrier status between cases and controls and an assumption of no genetic association, were calculated a priori.
# [7] = Plasma metabolic profile of DTG (pooled plasma); type: in vivo, human; settings: pooled plasma, both treatment groups
# Experimental: as §1, §2
# as §3, with “Data-dependent scanning using an accurate mass list, consisting of all previously characterised metabolites, was used in addition to analysis of pre-dose samples to aid in the distinction of drug-related material from endogenous components.” left out
# [8] = Safety evaluations, interaction study with TPV/r; type: in vivo, human
# Experimental: In both studies, safety evaluations [adverse event (AE) reporting, clinical chemistry laboratory tests, urinalysis, vital signs and electrocardiogram] were performed throughout the study. Given the known hepatotoxicity profile of TPV/r, more frequent monitoring of liver chemistries was performed in the TPV/r study, and conservative stopping criteria were employed such that any subject reaching a grade 2 increase in alanine aminotransferase (ALT) or aspartate aminotransferase (AST) was discontinued from the trial. Both trials were conducted as inpatient studies with subjects housed in the unit for the duration of the study. The studies were conducted in accordance with the principles of the Declaration of Helsinki. A written informed consent was obtained from all subjects, and both protocols were approved by the institutional review board of the study sites.
# CYP3A4/5 = settings: in vivo, cited from earlier work
# [9] = in vivo, EFV with DTG, CYP2B6*1/*1 or *1/*6 subjects n=6, geometric mean (CV%)
# [10] = in vivo, EFV with DTG, CYP2B6*6/*6 subjects n=3, geometric mean (CV%)
# [11] = in vivo, EFV with DTG, all subjects n=12, geometric mean (CV%)
compound,measurement,setting,value
CC(C)CN(C[C@@H](O)[C@H](Cc1ccccc1)NC(=O)O[C@H]1CCOC1)S(=O)(=O)c1ccc(N)cc1 [amprenavir],decrease of Cmin,[1],56%
CC(C)(C)NC(=O)[C@@H]1C[C@@H]2CCCC[C@@H]2CN1C[C@@H](O)[C@H](Cc1ccccc1)NC(=O)[C@H](CC(N)=O)NC(=O)c1ccc2ccccc2n1 [saquinavir],decrease of Cmin,[1],80%
C[C@@H]1CCO[C@H]2Cn3cc(C(=O)NC(O)c4ccc(F)cc4F)c(=O)c(O)c3C(=O)N12 (stereo partly shown) [M3],% DTG,[2]; DTG 50 mg + EFV q24h,38.8 (48.6) %
same,% Total drug-related response,[2]; DTG 50 mg + EFV q24h,1.9 (2.4) %
same,% DTG,[2]; DTG 50 mg q24h,51.9 (57.3) %
same,% Total drug-related response,[2]; DTG 50 mg q24h,2.9 (2.6) %
"Cc1nnc(C(=O)NC(C)(C)c2nc(C(=O)NCc3ccc(F)cc3)c(O)c(=O)n2C)o1 [RAL, raltegravir]",decrease of AUC(0–12),[3],24%
"COc1cc2c(cc1Cc1cccc(Cl)c1F)c(=O)c(C(=O)O)cn2[C@H](CO)C(C)C [EVG, Elvitegravir]",changes in PK,[4],No significant changes
"O=C1Nc2ccc(Cl)cc2[C@@](C#CC2CC2)(C(F)(F)F)O1 [EFV, efavirenz]",mean C max,[5],4070 ng/mL
same,Cmax,[5]; read-out: mean C max,12.9 µM
same,C τ,"[6]; EFV with DTG, CYP2B6*1/*1 or *1/*6 subjects n=6, geometric mean (CV%)",1.45 (40) μg/mL
same,AUC,[6]; [9],55700 ng·h/mL
same,AUC,[6]; [10],174000 ng·h/mL
same,AUC,[6]; [11],84200 ng·h/mL
same,Cmax,"[6]; in vivo, EFV 600 mg q24h with DTG 50 mg, all subjects n=12, geometric mean (CV%)",6020 ng/mL
same,Cmax,[6]; [9],4520 ng/mL
same,Cmax,[6]; [10],9500 ng/mL
same,concentration at 24 h,[6]; [10],5850 ng/mL
same,concentration at 24 h,[6]; [11],2410 ng/mL
same,Tmax,"[6]; in vivo, EFV with DTG, CYP2B6*1/*1 or *1/*6 subjects n=6, median (range)",2.5 h
same,Tmax,"[6]; in vivo, EFV with DTG, CYP2B6*6/*6 subjects n=3, median (range)",2 h
same,Tmax,"[6]; in vivo, EFV with DTG, all subjects n=12, median (range)",2.5 h
same,half-life,[6]; [9],15.6 h
same,half-life,[6]; [10],39.1 h
same,half-life,[6]; [11],22.2 h
same,EFV exposures in CYP2B6*6 homozygous subjects relative to CYP2B6*1/*1 or *1/*6 carriers,[6]; in vivo,two- to fourfold higher
C[C@@H]1CCO[C@H]2Cn3cc(C(=O)NCc4ccc(F)cc4F)c(=O)c(O[C@@H]4O[C@H](C(=O)O)[C@@H](O)[C@H](O)[C@H]4O)c3C(=O)N12 [M2],% DTG,[2]; DTG 50 mg + EFV q24h,"1,633 (607) %"
same,% Total drug-related response,[2]; DTG 50 mg + EFV q24h,79.8 (9.3) %
same,% DTG,[2]; DTG 50 mg q24h,"1,188 (275) %"
same,% Total drug-related response,[2]; DTG 50 mg q24h,72.8 (10.9) %
same,amount in plasma relative to DTG (mean),[7],< 2 % of DTG
tipranavir/ritonavir [TPV/r],subjects reporting nausea,[8]; healthy subjects n=18,22%
same,subjects reporting vomiting,[8]; healthy subjects n=18,11%
same,subjects with grade 2 increases in AST,"[8]; n=18, began during TPV/r alone (period 2)",Three
same,subjects with grade 2 increases in ALT leading to discontinuation,"[8]; n=18, began during TPV/r alone (period 2), considered related to TPV/r",Four
same,effect on CYP3A4/5,CYP3A4/5; after a single dose,moderately inhibits
same,effect on CYP3A4/5,CYP3A4/5; after repeated dosing,induces
